Test results from patent US12257247B2 (Monte Rosa Therapeutics AG, priority 2023, dated 2025).
Like-named read-outs stand apart in the source and are kept apart here.

Target: T1, VAV1 (Homo sapiens, UniProt P15498+Q96SW2)
T1 construct: A heterozygous VAV1 C-terminal HiBiT knock-in pool was generated at Monte Rosa Therapeutics from a clonal Jurkat cell; endogenous in cells; host or cells: Jurkat clone stably expressing LgBiT, homozygous GSPT1-G575N; heterozygous VAV1-HiBiT knock-in pool
Assay: VAV1 degradation activity, VAV1-HiBiT knock-in Jurkat luminescence assay (Example A, Table 1)
Format: cell-based
Conditions: VAV1-HiBiT knock-in Jurkat cells; for Dmax: Jurkat
How it was run: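 Jurkat cells carrying VAV1-HiBiT knock-in, plated in RPMI/10% FBS with Endurazine live-cell substrate and pre-incubated ~16 h at 37° C. Compound dosed from 10 μM stock; luminescence read 6 and 24 h later. Response normalised to plate negative/positive controls, EC50 from 3-parameter logistic fit (hillslope 1).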

[1] = luminescence read at 6 and 24 hours after compound addition, read-out: VAV1 Dmax %
[2] = luminescence read at 6 and 24 hours after compound addition, read-out: VAV1 Dmax %, class
[3] = luminescence read at 6 and 24 hours after compound addition, read-out: VAV1 DC50
[4] = luminescence read at 6 and 24 hours after compound addition, read-out: VAV1 DC50 (nM), class

Compound	Dmax (luminescence read at 6 and 24 hours, read-out: VAV1 Dmax %) [%]	Dmax (luminescence read at 6 and 24 hours, read-out: VAV1 Dmax %, class) [%]	DC50 (luminescence read at 6 and 24 hours, read-out: VAV1 DC50) [nM]	DC50 (luminescence read at 6 and 24 hours, read-out: VAV1 DC50 (nM), class) [nM]	Dmax [1] [%]	Dmax [2] [%]	DC50 [3] [nM]	DC50 [4] [nM]
O=C1CCC(c2cccc(-c3ccc4[nH]ccc4c3)c2Cl)C(=O)N1 (stereo not shown) [Compound 482, 3-(2-chloro-3-(1H-indol-5-yl)phenyl)piperidine-2,6-dione]	91.7	> 90	18.7	≤ 100				
O=C1CCC(c2cccc(-c3ccc4cc[nH]c4c3)c2Cl)C(=O)N1 (stereo not shown) [Compound 483, 3-(2-chloro-3-(1H-indol-6-yl)phenyl)piperidine-2,6-dione]					88.1	60 to 90	59.9	≤ 100
O=C1CCC(c2cccc(-c3ccc4cn[nH]c4c3)c2Cl)C(=O)N1 (stereo not shown) [Compound 484, 3-(2-chloro-3-(1H-indazol-6-yl)phenyl)piperidine-2,6-dione]					78.4	60 to 90	220	100 to 1000
O=C1CCC(c2cccc(-c3ccc4[nH]ncc4c3)c2Cl)C(=O)N1 (stereo not shown) [Compound 485, 3-[2-chloro-3-(1H-indazol-5-yl)phenyl]piperidine-2,6-dione]					89.7	60 to 90	41	≤ 100
O=C1CCC(c2cccc(-c3ccc4c(c3)CCCN4)c2Cl)C(=O)N1 (stereo not shown) [Compound 486, 3-(2-chloro-3-(1,2,3,4-tetrahydroquinolin-6-yl)phenyl)piperidine-2,6-dione]					96.2	> 90	6.51	≤ 100
O=C1CCC(c2cccc(-c3ccc4c(c3)OCCN4)c2Cl)C(=O)N1 (stereo not shown) [Compound 487, 3-(2-chloro-3-(3,4-dihydro-2H-benzo[b][1,4]oxazin-7-yl)phenyl)piperidine-2,6-dione]					82.8	60 to 90	23.7	≤ 100
CN1CCc2cc(-c3cccc(C4CCC(=O)NC4=O)c3Cl)ccc21 (stereo not shown) [Compound 488, 3-(2-chloro-3-(1-methylindolin-5-yl)phenyl)piperidine-2,6-dione]					91	> 90	17.2	≤ 100
Cn1ccc(CN2CCc3cc(-c4cccc(C5CCC(=O)NC5=O)c4Cl)ccc32)n1 (stereo not shown) [Compound 489, 3-(2-chloro-3-(1-((1-methyl-1H-pyrazol-3-yl)methyl)indolin-5-yl)phenyl)piperidine-2,6-dione]					97.8	> 90	2.84	≤ 100
O=C1CCC(c2cccc(-c3ccc4c(c3)CCN4)c2Cl)C(=O)N1 (stereo not shown) [Compound 490, 3-(2-chloro-3-(indolin-5-yl)phenyl)piperidine-2,6-dione]					74.5	60 to 90	131	100 to 1000
O=C1CCC(c2cccc(-c3ccc4c(c3)CCN4)c2F)C(=O)N1 (stereo not shown) [Compound 491, 3-(2-fluoro-3-(indolin-5-yl)phenyl)piperidine-2,6-dione]					88.5	60 to 90	15.7	≤ 100
O=C1CCC(c2cccc(-c3ccc4c(c3)CCC(=O)N4)c2Cl)C(=O)N1 (stereo not shown) [Compound 492, 3-(2-chloro-3-(2-oxo-1,2,3,4-tetrahydroquinolin-6-yl)phenyl)piperidine-2,6-dione]					94.3	> 90	10.7	≤ 100
O=C1CCC(c2cccc(-c3ccc4c(c3)CC(=O)N4)c2Cl)C(=O)N1 (stereo not shown) [Compound 493, 3-(2-chloro-3-(2-oxoindolin-5-yl)phenyl)piperidine-2,6-dione]					75.7	60 to 90	502	100 to 1000
O=C1CCC(c2cccc(-c3cnc4c(c3)OCCN4)c2Cl)C(=O)N1 (stereo not shown) [Compound 494, 3-(2-chloro-3-(3,4-dihydro-2H-pyrido[3,2-b][1,4]oxazin-7-yl)phenyl)piperidine-2,6-dione]					61.2	60 to 90	929	100 to 1000
Cn1ccc(CN2C(=O)Cc3cc(-c4cccc(C5CCC(=O)NC5=O)c4Cl)ccc32)n1 (stereo not shown) [Compound 496, 3-(2-chloro-3-(1-((1-methyl-1H-pyrazol-3-yl)methyl)-2-oxoindolin-5-yl)phenyl)piperidine-2,6-dione]					95.6	> 90	12.7	≤ 100
CC1(C)Cc2cc(-c3cccc(C4CCC(=O)NC4=O)c3Cl)ccc2N1 (stereo not shown) [Compound 497, 3-(2-chloro-3-(2,2-dimethylindolin-5-yl)phenyl)piperidine-2,6-dione]					95.8	> 90	18	≤ 100
Cn1ccc(Cn2ncc3cc(-c4cccc(C5CCC(=O)NC5=O)c4Cl)ccc32)n1 (stereo not shown) [Compound 498, 3-(2-chloro-3-(1-((1-methyl-1H-pyrazol-3-yl)methyl)-1H-indazol-5-yl)phenyl)piperidine-2,6-dione]					98	> 90	11.8	≤ 100
Cn1ccc(Cn2ccc3cc(-c4cccc(C5CCC(=O)NC5=O)c4Cl)ccc32)n1 (stereo not shown) [Compound 499, 3-(2-chloro-3-(1-((1-methyl-1H-pyrazol-3-yl)methyl)-1H-indol-5-yl)phenyl)piperidine-2,6-dione]					97.9	> 90	5.45	≤ 100
CC1Cc2cc(-c3cccc(C4CCC(=O)NC4=O)c3Cl)ccc2N1 (stereo not shown) [Compound 500, 3-(2-chloro-3-(2-methylindolin-5-yl)phenyl)piperidine-2,6-dione]					98.5	> 90	7.51	≤ 100
Cn1ccc(CN2C(=O)CCc3cc(-c4cccc(C5CCC(=O)NC5=O)c4Cl)ccc32)n1 (stereo not shown) [Compound 501, 3-(2-chloro-3-(1-((1-methyl-1H-pyrazol-3-yl)methyl)-2-oxo-1,2,3,4-tetrahydroquinolin-6-yl)phenyl)piperidine-2,6-dione]					97.7	> 90	8.19	≤ 100
Cn1ccc(CN2C(=O)COc3cc(-c4cccc(C5CCC(=O)NC5=O)c4Cl)ccc32)n1 (stereo not shown) [Compound 502, 3-(2-chloro-3-(4-((1-methyl-1H-pyrazol-3-yl)methyl)-3-oxo-3,4-dihydro-2H-benzo[b][1,4]oxazin-7-yl)phenyl)piperidine-2,6-dione]					97.8	> 90	3.95	≤ 100
CN1Cc2cc(-c3cccc(C4CCC(=O)NC4=O)c3Cl)ccc2N(Cc2ccn(C)n2)C1=O (stereo not shown) [Compound 503, 3-(2-chloro-3-(3-methyl-1-((1-methyl-1H-pyrazol-3-yl)methyl)-2-oxo-1,2,3,4-tetrahydroquinazolin-6-yl)phenyl)piperidine-2,6-dione]					90	60 to 90	4.73	≤ 100
Cn1cnc(CN2C(=O)Cc3cc(-c4cccc(C5CCC(=O)NC5=O)c4Cl)ccc32)c1 (stereo not shown) [Compound 504, 3-(2-chloro-3-(1-((1-methyl-1H-imidazol-4-yl)methyl)-2-oxoindolin-5-yl)phenyl)piperidine-2,6-dione]					96.7	> 90	5.5	≤ 100
O=C1CCC(c2cccc(-c3ccc4c(c3)CC(=O)N4Cc3cocn3)c2Cl)C(=O)N1 (stereo not shown) [Compound 505, 3-(2-chloro-3-(1-(oxazol-4-ylmethyl)-2-oxoindolin-5-yl)phenyl)piperidine-2,6-dione]					80.7	60 to 90	86.9	≤ 100
O=C1CCC(c2cccc(-c3ccc4c(c3)CC(=O)N4CC3CC3)c2Cl)C(=O)N1 (stereo not shown) [Compound 506, 3-(2-chloro-3-(1-(cyclopropylmethyl)-2-oxoindolin-5-yl)phenyl)piperidine-2,6-dione]					63.7	60 to 90	1770	> 1000
Cn1ccc(Cn2c(=O)oc3cc(-c4cccc(C5CCC(=O)NC5=O)c4Cl)ccc32)n1 (stereo not shown) [Compound 507, 3-(2-chloro-3-(3-((1-methyl-1H-pyrazol-3-yl)methyl)-2-oxo-2,3-dihydrobenzo[d]oxazol-6-yl)phenyl)piperidine-2,6-dione]					91.8	> 90	28.6	≤ 100
Cn1cncc1Cn1ncc2cc(-c3cccc(C4CCC(=O)NC4=O)c3Cl)ccc21 (stereo not shown) [Compound 508, 3-(2-chloro-3-(1-((1-methyl-1H-imidazol-5-yl)methyl)-1H-indazol-5-yl)phenyl)piperidine-2,6-dione]					92	> 90	63.2	≤ 100
Cn1cccc(N2CCc3cc(-c4cccc(C5CCC(=O)NC5=O)c4Cl)ccc32)c1=O (stereo not shown) [Compound 509, 3-(2-chloro-3-(1-(1-methyl-2-oxo-1,2-dihydropyridin-3-yl)indolin-5-yl)phenyl)piperidine-2,6-dione]					97.8	> 90	3.85	≤ 100
Cn1ccc(Cc2noc3cc(-c4cccc(C5CCC(=O)NC5=O)c4Cl)ccc23)n1 (stereo not shown) [Compound 510, 3-(2-chloro-3-(3-((1-methyl-1H-pyrazol-3-yl)methyl)benzo[d]isoxazol-6-yl)phenyl)piperidine-2,6-dione]					89.2	60 to 90	78.6	≤ 100
